We go through eight compounds from patent US20150329505A1, “A FLUORESCENT COMPOSITION FOR USE IN MARKING OBJECTS, SUCH AS FLOWERS” (BIOCONST PTY LTD, priority 2012, published 2015).

Structures are written as SMILES. Where a name gives a salt, the structure may show the parent alone. Read-outs that look alike come from different tables or passages of the source.

Data set [1] is described as follows: Fluorescence emitted by sprayed flowers when excited by UV light. Conditions: 0.1% pyranine, 0.5% sugar, 0.1% sodium bicarbonate, pH 7.72, dried overnight, then 1 mM, 1.5 mM and 2 mM HCl.
A short description of data set [2]: Autoclaving of fluorophore solutions. The data set is classed as physicochemical. Conditions: 0.5% (w/v) of the sugar, 0.1% pyranine, 0.1% sodium bicarbonate, autoclaved at 121° C. How it is done: Fluorophore solution containing sugar caused the increase in growth of bacteria and fungus.
Fluorophore solution was prepared containing 0.1% (w/v) pyranine, 0.5% (w/v) sucrose, 0.1% (w/v) sodium bicarbonate. A similar solution was prepared with the same concentration of fructose. A small quantity of both the solutions prepared was kept aside for future use. Both the solutions were autoclaved at 121° C. in an Atherton Squirrel autoclave. This was then allowed to cool to room temperature and sprayed on flowers. Solutions which were kept aside previously (and which were not auto-claved) were also sprayed onto flowers. A negative control with no spray was also used to monitor vase life.

Data set [3] can be described thus: Effect of time of UV exposure on fluorescence. The data set is classed as physicochemical. Conditions: 0.1% (w/v) sprayed on flowers, 6 hours, UV torch 50,000 μW/cm2. The protocol: The effect of long term exposure of UV light was tested on flowers sprayed with fluorophore
Flowers were sprayed with 0.1% (w/v) pyranine solution. The flowers were allowed to dry overnight. A UV torch Optimax™ 365, having an intensity of 50,000 μW/cm2 was shone on the sprayed flowers.

The test system of another data set is chrysanthemum flower. Description: Uptake of fluorophore by cut flowers. The data set is classed as in vivo. The following applies: cut stems in 0.1% (w/v) pyranine, 0.5% (w/v) sucrose overnight. How it is done:
(§1) Freshly cut stems of flowers (roses and chrysanthemums) were prepared and the ends of the stems placed in a solution of 0.1% (w/v) pyranine, 0.5% (w/v) sucrose. The cut end of the flowers was left in the solution overnight and uptake of the fluorophore viewed under UVA light.

In the next data set the test system is rose flower. The experiment in a line: Uptake of fluorophore by cut flowers. The format is in vivo. The following applies: cut stems in 0.1% (w/v) pyranine, 0.5% (w/v) sucrose overnight. How it is done:
as §1

Data set [4] concerns flowers. Description: Effect of sprayed solutions on wilting and vase life of flowers.
Description: (§2) The above solutions were prepared by adding the fluorophore to tap water, in order to test the properties of the fluorophores in a non-sterilised, non-purified aqueous solution. The solutions were placed into a spray device for application to the surface of the relevant plants.
(§3) Solutions were sprayed onto chrysanthemums and roses and allowed to dry overnight at room temperature.
Data set [5] relates to flowers. The following applies: in vivo.
Description: as §2, §3

Consider `Cl` [HCl], for which, in data set [1], the “change of fluorescence colour after acidic spray” value is “no change in colour to fluorescent blue”.

As to `OC[C@H]1O[C@@](CO)(O[C@H]2O[C@H](CO)[C@@H](O)[C@H](O)[C@H]2O)[C@@H](O)[C@@H]1O` [sucrose], in data set [2], the “appearance of the solution after autoclaving” value is recorded as “fluorescent green”.

In the case of `O=S(=O)([O-])c1cc(O)c2ccc3c(S(=O)(=O)[O-])cc(S(=O)(=O)[O-])c4ccc1c2c34.[Na+].[Na+].[Na+]` [pyranine, 8-Hydroxypyrene-1,3,6-trisulfonic acid trisodium salt], in data set [3], the “change of fluorescence on continuous UV exposure” value was “no visible change in the colour of fluorescence”. Besides, the “uptake of the fluorophore viewed under UVA light” value in the data set with chrysanthemum flower and with rose flower was “The veins in the petals of the flower demonstrate fluorescence” each time. Moreover, the “vase life of flower” value in the data set with flowers [4] (0.05% (w/v) in tap water, sprayed onto chrysanthemums and roses) was “did not affect the vase life of flower”. The vase life entry in the data set on flowers [4] (0.05% to 0.5% (w/v) in tap water) is recorded as “did not affect vase life”.

With `O=C(CO)[C@@H](O)[C@H](O)[C@H](O)CO` [fructose], the “appearance of the solution after autoclaving” value in data set [2] is on record as “dark brown”.

As to `O=C1OC2(c3ccc(O)cc3Oc3cc(O)ccc32)c2ccccc21` [Fluorescein, reference compound], the “wilting of flowers and vase life” value in the data set on flowers [5] was “caused wilting of flowers and reduced vase life”.

Regarding `O=C([O-])c1ccccc1-c1c2cc(Br)c(=O)c(Br)c-2oc2c(Br)c([O-])c(Br)cc12.[Na+].[Na+]` [Eosin Y, reference compound], the “wilting of flowers and vase life” value in the data set with flowers [4] (0.5% (w/v) in tap water, sprayed onto chrysanthemums and roses, dried overnight) was “caused wilting of flowers and reduced vase life”.

Consider `COC(=O)c1ccc(O)cc1` [methylparaben], for which, in the data set with flowers [5], the “wilting and vase life” value was “caused wilting of the flowers and reduced the vase-life of the flower”.

For the compound `O=C([O-])O.[Na+]` [sodium bicarbonate], the vase life entry with flowers [5] is reported as “did not affect the vase-life of the flower”.
